# Laboratory results: ChEMBL document CHEMBL5154661, “Novel 2-phenyl-3-(Pyridin-2-yl) thiazolidin-4-one derivatives as potent inhibitors for proliferation of osteosarcoma cells in vitro and in vivo” (Eur J Med Chem, 2022)
# Activity calls are given as the source filed them. The calls are words filed in the database; no cut-off is given here.
# What was measured:
# [1] = Kinetic solubility of compound at pH 7.4 by turbidimetry method; format: physicochemical; conditions: buffer, read-out: Kinetic_solubility
# [2] = Microsomal stability in human liver microsomes assessed as intrinsic clearance at 0.1 uM incubated for 10 mins in presence of NADPH by LC-MS/MS analysis; format: ADME, Microsome
# SJSA-1 [3] = experiment: Antiproliferative activity against human SJSA-1 cells assessed as cell growth inhibition measured after 72 hrs by CCK-8 assay; format: functional, cell-based; conditions: SJSA-1, 72 h
# HOS-TE85 [4] = experiment: Antiproliferative activity against human MNNG/HOS cells assessed as cell growth inhibition measured after 72 hrs by CCK-8 assay; format: functional, cell-based; conditions: HOS-TE85, 72 h
# [5] = Microsomal stability in rat liver microsomes assessed as intrinsic clearance at 0.1 uM incubated for 10 mins in presence of NADPH by LC-MS/MS analysis; format: ADME, Microsome
# [6] = Kinetic solubility of compound at pH 6.8 by turbidimetry method; format: physicochemical; conditions: buffer, read-out: Kinetic_solubility
# [7] = Microsomal stability in mouse liver microsomes assessed as intrinsic clearance at 0.1 uM incubated for 10 mins in presence of NADPH by LC-MS/MS analysis; format: ADME, Microsome
# MG-63 [8] = experiment: Antiproliferative activity against human MG-63 cells assessed as cell growth inhibition measured after 72 hrs by CCK-8 assay; format: functional, cell-based; conditions: MG-63, 72 h
# [9] = Cytotoxicity against human GES1 cells assessed as growth inhibition measured after 72 hrs by CCK-8 assay; format: toxicity, cell-based
# [10] = Toxicity in ICR mouse at 300 mg/kg, ip administered daily for a week; format: organism-based; conditions: in vivo
# K562 = experiment: Antiproliferative activity against human K562 cells with low MYOF expression assessed as cell growth inhibition incubated for 72 hrs by CCK-8 assay; format: functional, cell-based; conditions: K562, 72 h
# [11] = Toxicity in BALB/c nude mouse xenografted with human MNNG/HOS cells assessed as effect on liver morphology by H and E staining assay at 62.5 mg/kg, ip administered twice per day for 18 days; format: organism-based, HOS-TE85; conditions: in vivo, 432 h, time 18 day
# [12] = AUC(0 to infinity) in male ICR mouse at 62.5 mg/kg, ip measured upto 24 hrs by LC-MS/MS analysis; format: ADME, organism-based; set-up: dose 62.5 mg/kg, time < 24 hrs, route ip; conditions: in vivo
# [13] = Toxicity in BALB/c nude mouse xenografted with human MNNG/HOS cells assessed as effect on ratio of heart weight to body weight at 62.5 mg/kg, ip administered twice per day for 18 days; format: organism-based, HOS-TE85; conditions: in vivo, 432 h, time 18 day
# MG-63 [14] = experiment: Antiproliferative activity against human MG-63 cells with increase MYOF expression assessed as cell growth inhibition incubated for 72 hrs by CCK-8 assay; format: functional, cell-based; conditions: MG-63, 72 h
# HOS-TE85 [15] = experiment: Antitumor activity against human MNNG/HOS cells xenografted in BALB/c nude mouse assessed as reduction in tumor weight at 62.5 mg/kg, ip administered twice per day for 18 days; format: functional, organism-based; conditions: time 18.0 day
# U2OS = experiment: Antiproliferative activity against human U2OS cells assessed as cell growth inhibition measured after 72 hrs by CCK-8 assay; format: functional, cell-based
# SJSA-1 [16] = experiment: Antiproliferative activity against human SJSA-1 cells with increase MYOF expression assessed as cell growth inhibition incubated for 72 hrs by CCK-8 assay; format: functional, cell-based; conditions: SJSA-1, 72 h
# [17] = Drug distribution in tumor of BALB/c nude mouse xenografted with human MNNG/HOS cells at 62.5 mg/kg,ip measured after 12 hrs; format: ADME, organism-based, Neoplasm, HOS-TE85; conditions: read-out: Ct
# [18] = Oral bioavailability in male ICR mouse at 25 mg/kg measured upto 24 hrs by LC-MS/MS analysis; format: ADME, organism-based; conditions: in vivo
# SAOS-2 = experiment: Antiproliferative activity against human SAOS-2 cells assessed as growth inhibition measured after 72 hrs by CCK-8 assay; format: functional, cell-based; conditions: SAOS-2, 72 h
# [19] = Toxicity in BALB/c nude mouse xenografted with human MNNG/HOS cells assessed as body weight loss at 62.5 mg/kg, ip administered twice per day for 18 days; format: organism-based, HOS-TE85; conditions: in vivo, 432 h, time 18 day
# [20] = Toxicity in ICR mouse at 800 mg/kg, ip; format: organism-based; conditions: in vivo
# HOS = experiment: Antiproliferative activity against human HOS cells assessed as cell growth inhibition measured after 72 hrs by CCK-8 assay; format: functional, cell-based
# SW1353 = experiment: Antiproliferative activity against human SW1353 cells assessed as cell growth inhibition measured after 72 hrs by CCK-8 assay; format: functional, cell-based; conditions: SW1353, 72 h
# HOS-TE85 [21] = experiment: Inhibition of cell migration in human MNNG/HOS cells at 20 nM measured after 24 hrs by wound healing assay relative to control; format: functional
# [22] = Half life in male ICR mouse at 5 mg/kg, iv measured upto 24 hrs by LC-MS/MS analysis; format: ADME, organism-based; conditions: in vivo
# HOS-TE85 [23] = experiment: Antitumor activity against human MNNG/HOS cells xenografted in female BALB/c nude mouse assessed as tumor growth inhibition at 62.5 mg/kg, ip administered twice per day for 18 days relative to control; format: functional; conditions: HOS-TE85, 432 h, time 18 day, read-out: TGI
# [24] = Toxicity in BALB/c nude mouse xenografted with human MNNG/HOS cells assessed as effect on ratio of spleen weight to body weight at 62.5 mg/kg, ip administered twice per day for 18 days; format: organism-based, HOS-TE85; conditions: in vivo, 432 h, time 18 day
# HOS-TE85 [25] = experiment: Antiproliferative activity against human MNNG/HOS cells with low MYOF expression assessed as cell growth inhibition incubated for 72 hrs by CCK-8 assay; format: functional, cell-based; conditions: HOS-TE85, 72 h
# HOS-TE85 [26] = experiment: Antiproliferative activity against human MNNG/HOS cells with increase MYOF expression assessed as cell growth inhibition incubated for 72 hrs by CCK-8 assay; format: functional, cell-based; conditions: HOS-TE85, 72 h
# [27] = Toxicity in BALB/c nude mouse xenografted with human MNNG/HOS cells assessed as effect on heart morphology by H and E staining assay at 62.5 mg/kg, ip administered twice per day for 18 days; format: organism-based, HOS-TE85; conditions: in vivo, 432 h, time 18 day
# [28] = Plasma clearance in male ICR mouse at 12.5 mg/kg, iv measured upto 24 hrs by LC-MS/MS analysis; format: ADME, organism-based
# [29] = AUC(0 to infinity) in male ICR mouse at 12.5 mg/kg, iv measured upto 24 hrs by LC-MS/MS analysis; format: ADME, organism-based; set-up: time < 24 hrs, dose 12.5 mg/kg, route iv; conditions: in vivo
# HOS-TE85 [30] = experiment: Cell cycle arrest at human MNNG/HOS cells assessed as accumulation at G0/G1 phase at 5 uM measured after 24 hrs by propidium iodide staining based flow cytometry(Rvb=37.12%); format: functional
# [31] = Half life in male ICR mouse at 12.5 mg/kg, iv measured upto 24 hrs by LC-MS/MS analysis; format: ADME, organism-based; conditions: in vivo
# 143B = experiment: Antiproliferative activity against human 143B cells assessed as cell growth inhibition measured after 72 hrs by CCK-8 assay; format: functional, cell-based
# [32] = Toxicity in BALB/c nude mouse xenografted with human MNNG/HOS cells assessed as effect on ratio of kidney weight to body weight at 62.5 mg/kg, ip administered twice per day for 18 days; format: organism-based, HOS-TE85; conditions: in vivo, 432 h, time 18 day
# [33] = Drug distribution in plasma of BALB/c nude mouse xenografted with human MNNG/HOS cells at 62.5 mg/kg,ip measured after 12 hrs; format: ADME, organism-based, HOS-TE85
# [34] = Cmax in male ICR mouse at 62.5 mg/kg, ip measured upto 24 hrs by LC-MS/MS analysis; format: ADME, organism-based; set-up: dose 62.5 mg/kg, time < 24 hrs, route ip; conditions: in vivo
# [35] = Toxicity in BALB/c nude mouse xenografted with human MNNG/HOS cells assessed as effect on ratio of liver weight to body weight at 62.5 mg/kg, ip administered twice per day for 18 days; format: organism-based, HOS-TE85; conditions: in vivo, 432 h, time 18 day
# [36] = Cytotoxicity against human BMSC cells assessed as growth inhibition measured after 72 hrs by CCK-8 assay; format: toxicity, cell-based, HBMSC
# HOS-TE85 [37] = experiment: Inhibition of cell migration in human MNNG/HOS cells at 5 nM measured after 24 hrs by transwell assay; format: functional
# HL-60 = experiment: Antiproliferative activity against human HL-60 cells with low MYOF expression assessed as cell growth inhibition incubated for 72 hrs by CCK-8 assay; format: functional, cell-based; conditions: HL-60, 72 h
# HOS-TE85 [38] = experiment: Cell cycle arrest in human MNNG/HOS cells assessed as accumulation at G2/M phase at 5 uM measured after 24 hrs by propidium iodide staining based flow cytometry(Rvb=21.2%); format: functional
# HOS-TE85 [39] = experiment: Cell cycle arrest at human MNNG/HOS cells assessed as accumulation at S phase at 5 uM measured after 24 hrs by propidium iodide staining based flow cytometry(Rvb=38.9%); format: functional
# [40] = Half life in male ICR mouse at 62.5 mg/kg, ip measured upto 24 hrs by LC-MS/MS analysis; format: ADME, organism-based; conditions: in vivo
# [41] = Bioavailability in male ICR mouse at 62.5 mg/kg, ip measured upto 24 hrs by LC-MS/MS analysis; format: ADME, organism-based; conditions: in vivo
# [42] = Toxicity in BALB/c nude mouse xenografted with human MNNG/HOS cells assessed as effect on kidney morphology by H and E staining assay at 62.5 mg/kg, ip administered twice per day for 18 days; format: organism-based, HOS-TE85; conditions: in vivo, 432 h, time 18 day
# [43] = Toxicity in BALB/c nude mouse xenografted with human MNNG/HOS cells assessed as effect on spleen morphology by H and E staining assay at 62.5 mg/kg, ip administered twice per day for 18 days; format: organism-based, HOS-TE85; conditions: in vivo, 432 h, time 18 day
structure (smiles),measurement,setting,value
Cc1ccnc(N2C(=O)CSC2c2cccc(C(=O)NCCCCn3cccn3)c2)c1 (racemic),solubility kinetic,[1],50 µM
same,intrinsic clearance (CLint),[2],128.7 mL/min/g
same,IC50,SJSA-1 [3],33.2 nM
same,IC50,HOS-TE85 [4],19.6 nM
same,intrinsic clearance (CLint),[5],1022 mL/min/g
same,solubility kinetic,[6],50 µM
same,intrinsic clearance (CLint),[7],392 mL/min/g
same,IC50,MG-63 [8],38.9 nM
Cc1ccnc(N2C(=O)CS[C@@H]2c2cccc(C(=O)NCCCCn3cccn3)c2)c1,IC50 at 72 h,[9],> 20000 nM
same,Activity,[10],Non-Toxic
same,IC50,K562,28.1 nM
same,Activity,[11],Non-Toxic
same,AUC(0-inf),[12],8410 ng·h/mL
same,Activity,[13],Non-Toxic
same,IC50,MG-63 [14],14.9 nM
same,Activity,HOS-TE85 [15],Active
same,IC50,U2OS,26.5 nM
same,IC50,SJSA-1 [16],62.2 nM
same,concentration at 12 h,[17],110 nM
same,IC50,SJSA-1 [3],62.2 nM
same,bioavailability,[18],0.36%
same,IC50,SAOS-2,26.8 nM
same,Activity,[19],Non-Toxic
same,Activity,[20],Non-Toxic
same,IC50,HOS,50.9 nM
same,IC50,HOS-TE85 [4],21.9 nM
same,IC50,SW1353,19.9 nM
same,inhibition at 0.02 µM,HOS-TE85 [21],50%
same,half-life,[22],23.4 min
same,inhibition in vivo at 62.5 mg/kg,HOS-TE85 [23],52.9%
same,Activity,[24],Non-Toxic
same,IC50,HOS-TE85 [25],35.2 nM
same,IC50,HOS-TE85 [26],31.6 nM
same,Activity,[27],Non-Toxic
same,clearance,[28],66.9 mL/min/kg
same,AUC(0-inf),[29],3230 ng·h/mL
same,Activity,HOS-TE85 [30],59.69%
same,half-life,[31],3.66 min
same,IC50,143B,29.5 nM
same,Activity,[32],Non-Toxic
same,concentration at 12 h,[33],55.5 nM
same,Cmax,[34],20500 ng/mL
same,Activity,[35],Non-Toxic
same,IC50 at 72 h,[36],> 10000 nM
same,inhibition at 0.005 µM,HOS-TE85 [37],60%
same,IC50,HL-60,19 nM
same,Activity,HOS-TE85 [38],10.21%
same,Activity,HOS-TE85 [39],30.1%
same,half-life,[40],38.5 min
same,IC50,MG-63 [8],14.9 nM
same,bioavailability,[41],52.1%
same,Activity,[42],Non-Toxic
same,Activity,[43],Non-Toxic
